Data from patent publication US6969590B2, “Use of a polypeptide for treatment of pruritus in animals” (Zengen, Inc., priority 2001, dated 2005).

Key:
[1] = system: carrageenan-induced swelling in rat paws; test: Rat paw edema test; format: in vivo, Sprague-Dawley rats; conditions: 100 mg/kg intraperitoneal, first hour
Experimental: A second in vivo bioassay for anti-inflammatory activity was conducted in which the action of the tripeptide was compared to that of hydrocortisone. In this assay, the two agents were given at similar doses and tested for their independent ability to inhibit carrageenan-induced swelling in rat paws. This assay, the rat paw edema test, was conducted generally as it is typically performed in the art, for example, as described by Winter et al. (1962), Proc. Soc. Exp. Biol. Med., 111:544 or in U.S. Pat. No. 4,150,137. Briefly, the assay was performed as follows. Each of twenty-four male Sprague-Dawley rats was assigned to one of four groups: Tripeptide treatment and controls (matched according to body weight and initial paw volume), hydrocortisone treatment and matched controls. The volume of the right rear paw of the test and control animals was determined using standard procedures and a mercury displacement volumetric technique. […] One hour later 0.5 ml of 1% lambda carrageenan in saline solution was injected into the right rear paw of the animals and the paw volume was again recorded (baseline measure). For comparison of the effects of the two treatments, paw volume of experimental animals measured at hourly intervals was expressed as a percentage of the volume change of their respective matched controls.

[2] = system: inflammation induced in the hind paw; test: Kappa carrageenan-induced hind paw inflammation, spinal cord intact or transected; format: in vivo, BALB/c mice; conditions: 2.5 mg/mouse IP, mice with spinal transection, 4.5 h after carrageenan
Experimental: Because surgical dissection of trigeminal structures that innervate the ear of the mouse is very difficult, tests to learn whether descending neural pathways are essential to the anti-inflammatory activity of centrally administered α-MSH peptides were performed in mice with inflammation induced in a hind paw. In these experiments, each animal was anesthetized with pentobarbital sodium solution as above. Baseline footpad thickness of both hind paws was measured with a spring-loaded micrometer (Swiss Precision Instruments, Los Angeles, Calif.). Paw thickness was expressed in units of 10^−3 cm; average thickness of unstimulated paws was 171.5×10^−3 cm across shipments of animals. Kappa carrageenan (Sigma) dissolved in saline (0.05%, 20 μl) was injected (28 gauge allergy test syringe) into one footpad, and saline (20 μl) was injected into the other. For the analyses, the increase in thickness of the control saline-injected paw of each animal was subtracted from that of the carrageenan-injected paw, to eliminate the influence of mechanical injury and volume of the injected fluid. To be certain that mice with severed spinal cords can react to anti-inflammatory agents, prednisolone (2.5 mg/mouse (IP injection)) was administered to 10 mice with spinal transection and inflammation induced by carrageenan. Treatment with the locally acting steroid reduced swelling up to 29% (average, relative to saline controls) at 4.5 h. after carrageenan.
However, a standardized crushing of lumbar vertebrae with a hemostat was effective in severing the cord; no deaths were caused by this treatment. […] The experiments were limited to 4.5 h to reduce problems of bowel and bladder dysfunction. Immediately after the 4.5 h measurements all mice were killed with an overdose of sodium pentobarbital.
Because of the size of the experiments and the requirement for several shipments of animals over time, several experiments were performed, each with complete treatment and control groups drawn from the same shipment of mice. Omnibus analysis of variance techniques (Dynastat, Washington, D.C.) were used to test overall differences among group means. Tukey's protected t test was used to compare individual means. Probability values of <0.05 were considered significant.

[3] = system: TNF-α; test: TNF-α production by activated N9 microglia; format: cell-based, murine; conditions: microglia stimulated with LPS+IFN-γ for 24 hr, micromolar concentrations
Experimental: (§1) The N9 clone of murine microglial cells was obtained by immortalization of embryonic brain cultures with the 3RV retrovirus carrying an activated v-myconcogene. N9 cells were cultured in T-75-cm^2 culture flasks (Corning, Cambridge, Mass.) and maintained at 37° C. in a humidified incubator under 5% CO2 atmosphere in RPMI 1640 supplemented with 2 mM L-glutamine, 50 U/mL penicillin G, 50 μg/mL streptomycin sulfate (GIBCO-BBL, Paisley, UK), and 10% heat-inactivated fetal bovine serum (FBS, Hyclone Lab, Inc., Logan, Utah) until experiments were performed. Cells were used between the first and the tenth passage.
(§2) Sub-confluent microglial cells were washed twice with phosphate-buffered saline (PBS) and incubated with trypsin 0.025% and ethylenediaminetetraacetate (EDTA) 0.02% without calcium and magnesium for 3 min. at 37° C. to detach the cells from the culture flask. Cells were then resuspended in medium and incubated in 24-well tissue-culture plates at a concentration of 2×10^5 cells/mL for 16 h in a humidified incubator (37° C., 5% CO2). Growth medium was removed and cell monolayers were stimulated with 10 ng/mL lipopolysaccharide (LPS, from Escherichia coli 055:B5, Sigma Chemical Co., St. Louis, Mo.) plus 1 U/ml, murine IFN-γ (Sigma). To test effects of melanocortin peptides, concentrations (1, 10, 25, 50 and 100 μM) of α-MSH (1-13), α-MSH (11-13), and ACTH (1-24) (Sigma) were dissolved in medium and added to wells 10 min before treatment with LPS+IFN-γ. […] Viability of cells was assessed by trypan blue exclusion for each experimental condition; it was consistently >98%. […]
(§3) TNF-α bioactivity was measured in supernatants of cell cultures by standard cytotoxicity assay using L929 cells and recombinant human TNF-α (Sigma) as standard. […] IL-6 was measured using a commercial murine enzyme-linked immunosorbent assay (ELISA: RPN 2714, Amersham, Little Chalfont, UK).
(§4) Effects of melanocortin peptides on cytokine and NO production were evaluated by repeated measures analysis of variance followed by Dunnet's test for specific comparisons. […]

[4] = system: IL-6; test: IL-6 production by activated N9 microglia; format: cell-based, murine; conditions: microglia stimulated with LPS+IFN-γ for 24 hr, micromolar concentrations
Experimental: as §1, §2, §3, §4

[5] = system: NO2^−; test: Nitrite (NO) production by activated N9 microglia; format: cell-based, murine; conditions: microglia stimulated with LPS+IFN-γ for 24 hr, micromolar concentrations
Experimental: as §1, §2
NO is rapidly oxidized to nitrite (NO2) in culture medium, and nitrite concentration is an indicator of NO production. […] Samples were incubated at room temperature for 10 min and absorbency was measured at 540 nm with the use of a microplate reader. Nitrite concentrations were calculated using a sodium nitrite standard curve.
as §4

[6] = system: TNF-α and iNOS mRNA; test: Northern blot of TNF-α and iNOS mRNA in activated microglia; format: cell-based, murine
Experimental: Total cellular RNA was extracted from 10^6 adherent microglial cells plated in six-well tissue culture plates (Corning). Electrophoresis of RNA samples (10 μg/lane) was performed in 1% agarose/2.2 M formaldehyde gels and the gels subsequently blotted onto nylon filters by capillary action and baked for 2 h before prehybridization. The cDNA fragments encoding murine TNF-α and mouse macrophage iNOS were ^32P-labeled using the Ready-To-Go DNA Labeling Kit (Pharmacia, Uppsala, Sweden) before hybridization of nylon filters and autoradiography. Blots were subsequently rehybridized with human glyceraldehyde-3-phosphate dehydrogenase (G-3-PDH) cDNA probe as an internal control (Clontech Laboratories, Inc., Palo Alto, Calif.).

[7] = system: C. albicans; test: C. albicans colony forming units (candidacidal activity); format: cell-based; conditions: 10^−4M melanocortin peptides
Experimental: C. albicans (1×10^6/ml in HBSS) was incubated in the presence or absence or α-MSH (1-13) or α-MSH (11-13) at concentrations in the range of 10^−15 M to 10^−6 M for 2 hours at 37° C. Cells were then washed in cold distilled water and diluted with HBSS to a concentration of 100 organisms/ml. One-ml aliquots were dispensed on blood agar plates and incubated for 48 hours at 37° C. Organism viability was estimated from the number of colonies formed. In subsequent experiments using familiar procedures we compared activity of α-MSH (4-10), α-MSH (6-13), α-MSH (11-13), ACTH (1-39), (18-39) and fluconazole, the latter an established antifungal agent. Melanocortin peptides and fluconazole were tested in concentrations of 10^−6 M to 10^−4 M. There were at least six replicates for each concentration of peptide.

[8] = system: C. albicans; test: Horse serum-induced germ tube formation of C. albicans; format: cell-based; conditions: 10^−6M, 60 minutes at 37° C.
Experimental: C. albicans from stationary phase cultures were washed twice with distilled water and suspended in HBSS to a final concentration of 2×10^6/ml. Hyphal growth was induced by addition of 10% inactivated horse serum (GIBCO/BRL, Great Britain) to yeast incubated for 45 minutes at 37° C. with continuous shaking. Horse serum was removed by washing cells twice with HBSS and incubation was continued for 60 minutes at 37° C. in the presence of α-MSH (1-13), α-MSH (6-13) or α-MSH (11-13) at a concentration of 10^−6M with continuous shaking. The percentage of filamentous cells was evaluated under a light microscope with the aid of hemocytometer. Experiments were run in triplicate and at least 200 cells were scored. Photomicrographs were taken with an MC100 camera attached to an Axioskop Zeiss microscope.

C[C@]12CCC(=O)C=C1CC[C@@H]1[C@@H]2[C@@H](O)C[C@@]2(C)[C@H]1CC[C@]2(O)C(=O)CO [hydrocortisone, reference compound]
inhibition of paw swelling in the first hour [1]: markedly inhibited swelling

C[C@]12C=CC(=O)C=C1CC[C@@H]1[C@@H]2[C@@H](O)C[C@@]2(C)[C@H]1CC[C@]2(O)C(=O)CO [prednisolone, reference compound]
reduction of swelling relative to saline controls (average) [2]: up to 29%

ACTH (1-24): melanocortin peptide ACTH (1-24) (SYSMEHFRWGKPVGKKRRPVKVYP; Corticotropin; UniProt P01189 138-161, looked up, fragment) [reference compound]
reduction of production of TNF-α [3]: 38%
reduction of production of IL-6 [4]: 65%
reduction of production of NO2^− [5]: 41%
mRNA for TNF-α and iNOS (Northern blot) [6]: inhibition of mRNA transaction for TNF-α and iNOS

HFRWGKPV (Designed polypeptide with anti-inflammatory, anti-bacterial, anti-fungal and antipyretic properties.) [α-MSH (6-13)]
relative potency in reducing C. albicans viability [7]: the most effective
reduction in the number of filamentous cells (inhibition of germination) [8]: approximately 50%
